In patent publication US20110201603A1, “Novel Acylaminobenzamide Derivatives” (Bayer CropScience AG, priority 2008, published 2011):

Test system: Boophilus microplus
Experiment: Boophilus microplus test (injection)
Assay type: in vivo
Conditions: application rate of 20 μg/animal; injection into adult engorged female ticks; after 7 days
Procedure: Solvent: dimethyl sulfoxide
To produce a suitable preparation of active compound, 10 mg of active compound are dissolved in 0.5 ml solvent, and the concentrate is diluted with solvent to the desired concentration. Five adult engorged female ticks (Boophilus microplus) are injected with compound solution into the abdomen. Ticks are transferred into replica plates and incubated in a climate chamber for a period of time. Egg deposition of fertile eggs is monitored. After 7 days mortality in % is determined. 100% means that all eggs are infertile; 0% means that all eggs are fertile.

Compound: CCc1cc(C(n2cc(C(F)(F)F)cn2)(C(F)(F)F)C(F)(F)F)cc(C)c1NC(=O)c1cccc(N)c1 [11-114]
- activity (mortality in %; 100% means all eggs are infertile): 80%
